Patent US10287581B2, “Cell penetrating peptides for intracellular delivery of molecules” (AADIGEN, LLC, priority 2011, dated 2019)
Where two headings read alike, the source gives them in different places.

How the values were obtained:
siRNA = experiment: Binding of siRNA to VEPEP-6 peptides by fluorescence spectroscopy
Description: (§1) FIG. 2: Binding of nucleic acid to VEPEP-6a as monitored by TRP-intrinsic fluorescence spectroscopy. Dissociation constants were calculated from data fitting. Nucleic acids used: double stranded DNA (45/35 mer), siRNA (19/19 or 25/25) and single stranded DNA (19 or 36 mer)
(§2) VEPEP-6 peptide form stable complexes with siRNA, single stranded and double stranded oligonucleotides. The binding of cargos to VEPEP-6 was monitored by fluorescence spectroscopy using the both intrinsic Trp group of VEPEP-6 (3 to 5 Trp-residues) and extrinsic fluorescently labeled cargoes (using Cy3, Cy5 or FITC). Fluorescence experiments were performed on a PTI spectrofluorimeter at 25° C. in a NaCl 154 mM buffer. Intrinsic Trp-fluorescence of VEPEP-6 was excited at 290 nm and emission spectrum was recorded between 310 and 400 nm, with a spectral band-pass of 2 and 8 nm for excitation and emission, respectively. FITC-fluorescence of labelled-siRNA or DNA was excited at 492 nm and emission recorded between 500 and 580 nm. For VEPEP-6/siRNA interaction, 0.5 μM of FITC-labelled siRNA was titrated by increasing concentrations of peptide. All measurements were corrected for the dilution and curve fitting were performed by using Grafit software (Erithacus). Curve fitting reveal that VEPEP-6 strongly binds the different cargoes with dissociation constant in the nanomolar range (Table 1 and FIG. 2).
(§3) Binding of nucleic acid to ST-VEPEP-6aa was monitored by fluorescence spectroscopy using both TRP-intrinsic and fluorescently labelled nucleic acids. Dissociation constants were calculated from data fitting. Nucleic acids used were double stranded siRNA (19/19 or 25/25) and single stranded DNA (36 mer).

[1] = target: SS-DNA: single-stranded DNA; experiment: Binding of single-stranded DNA to VEPEP-6 peptides by fluorescence spectroscopy
Description: as §1, §2, §3

[2] = Binding of doxorubicin to VEPEP-6 by quenching of tryptophan fluorescence; conditions: cargo Doxorubicin
Description: (§4) FIG. 3: Binding of small hydrophobic molecules to VEPEP-6 as monitored by fluorescence spectroscopy. The binding of Doxorubicin, AZT and Porphyrin to VEPEP-6 was monitored by following the quenching of tryptophan-intrinsic VEPEP-6 fluorescence and that of fluoresceine-labelled-Guanosine (FAM-G) by monitoring FAM-fluorescence. Dissociation constants were calculated from data fitting.
(§5) VEPEP-6 peptides also form stable particles with small aromatic and/or hydrophobic molecules including daunomycin, Paclitaxel, doxorubicin, AZT, porphyrin, FAM-G or fluorescent dyes (FIG. 3). The dissociation constant for small hydrophobic molecule ranges between 0.03 to 4 μM, depending on the nature of the dyes and of the peptides.

[3] = test system: DD-DNA: double-stranded DNA; experiment: Binding of double-stranded DNA to VEPEP-6 peptides by fluorescence spectroscopy; conditions: cargo DD-DNA
Description: as §1, §2

[4] = Binding of porphyrin to VEPEP-6 by quenching of tryptophan fluorescence; conditions: cargo porphyrin
Description: as §4, §5

[5] = Binding of AZT to VEPEP-6 by quenching of tryptophan fluorescence; conditions: cargo AZT
Description: as §4, §5

[6] = Binding of FAM-guanosine to VEPEP-6 by FAM fluorescence; conditions: cargo FAM-guanosine
Description: as §4
FIGS. 8A and 8B: (8A) Binding of small hydrophobic fluorescent molecules (SFM) to VEPEP-6 as monitored by fluorescence spectroscopy. In the present case, a fluorescently labeled nucleotide (fluorescein-labeled-Guanine) was used. Dissociation constants were calculated from data fitting. (8B) Effect of VEPEP-6 mediated doxorubicin on cancer cell viability. Dose responses of free (white bars) and VEPEP-6 mediated (grey bars) doxorubicin have been evaluated on the viability of U2OS and MCF7 cancer cells.
as §5

[7] = cargo siRNA, 25° C., NaCl 154 mM buffer, read-out: Kd

Kd (siRNA; double stranded nucleic acid (siRNA 19/19 or 25/25), read-out: dissociation constant) [nM] | Kd ([1]; single stranded nucleic acid (DNA 36 mer), read-out: dissociation constant) [nM] | Binding [2] | Kd [2] [nM] | Binding [3] | Kd [3] [nM] | Binding [4] | Kd [4] [nM] | Binding (siRNA; cargo siRNA) | Kd (siRNA; [7]) [nM] | Binding ([1]; cargo SS-DNA) | Kd ([1]; cargo SS-DNA, read-out: Kd) [nM] | Binding [5] | Binding [6] | Kd [5] [nM] | Kd [6] [nM] | Substance
7 | 4 |  |  |  |  |  |  |  |  |  |  |  |  |  |  | Ac-X1LFLARWRsLLRSsLWRLLWK-cysteamide [ST-VEPEP-6aa]
 |  | yes | 1000 | yes | 200 | yes | 4000 | yes | 10 to 20 | yes | 50 to 100 | no | no |  |  | Ac-[βA/S]LFRALWRLLR[S/T]LWRLLW[K/R]-cysteamide [VEPEP-6a]
 |  | yes | 700 | yes | 200 | yes | 5000 | yes | 10 to 20 | yes | 50 to 100 | no | no |  |  | Ac-[βA/S]LWRALWRLWR[S/T]LWRLLW[K/R]A-cysteamide [VEPEP-6b]
 |  | yes | 500 | yes | 200 | yes | 500 | yes | 10 to 20 | yes | 50 to 100 | yes | yes | 100 | 800 | Ac-[βA/S]LWRALWRLWR[S/T]LWRLWR[K/R]A-cysteamide [VEPEP-6d]
 |  | yes | 200 | yes | 200 | yes | 200 | yes | 10 to 20 | yes | 50 to 100 | yes | yes | 2400 | 2800 | Ac-[βA/S]LWRALWRL[L/C/I]RNLWRLLW[K/R]A-cysteamide [VEPEP-6f]
 |  | yes | 30 | yes | 200 | yes | 1200 | yes | 10 to 20 | yes | 50 to 100 | yes | yes | 300 | 4000 | Ac-[βA/S]LWRALWRL[L/C/I]R[S/T]LWRLWR[K/R]A-cysteamide [VEPEP-6c]
 |  | yes | 500 | yes | 200 | yes | 200 | yes | 10 to 20 | yes | 50 to 100 | yes | yes | 900 | 2300 | Ac-[βA/S]LWRALWRL[L/I]RALWRLLW[K/R]A-cysteamide [VEPEP-6e]
